One series deals with female C57BL/6 mice. As to the kind of experiment: Bone histomorphometry of distal femur after 5 weeks of GSK126. Format: in vivo, mouse. Conditions: for N.Ob/B.pm / N.Ob/T.Ar / N.Oc/B.Pm / N.Oc/T.Ar / Ob.S/BS / Oc.S/BS: mean. The procedure: (§1) Female C57BL/6 mice (Harlan Laboratories) were maintained on a 12-hour light/12-hour dark cycle and were permitted ad libitum access to food and water. For efficacy studies, 6-week old mice received daily intraperitoneal (IP) injections of GSK126 at 15 mg/kg, 50 mg/kg, or vehicle (DMSO) in 20% Captisol adjusted to pH 4-4.5 with IN acetic acid (McCabe et al., Nature, 492:108-112 (2012)) for 5 weeks.
(§2) The dosage, delivery schedule, and administration route were similar to those described elsewhere (McCabe et al., Nature, 492:108-112 (2012)). Animals were weighed daily. To label mineralizing bone surfaces, mice received subcutaneous injections of calcein (10 mg/kg) 5 days and 24 hours before euthanasia.
The right distal femur was processed for static and dynamic histomorphometry as described elsewhere (McGee-Lawrence et al., Bone, 48:1117-1126 (2011)). Thin (5 μm) sections were stained with Von Kossa/McNeal's tetrachrome to highlight osteoblast surfaces and Goldner's trichrome to examine mineralizing surface and bone surfaces. Osteoclasts were detected using TRAP staining. Unstained sections were used for assessment of dynamic histomorphometry and bone area. Slides were digitized under 40× magnification using Mikroscan D2 digital whole slide scanner and Q-Skan software (Mikroscan Technologies). Beginning 450 μm proximal to the growth plate, mineralizing surface (MS/BS, %/day), mineral apposition rate (MAR, μm/day), bone formation rate (BFR/BV, %/day), osteoblast surface/bone surface (Ob.S/BS, %), osteoblast number/bone perimeter (N.Ob/B.Pm, #/mm), osteoclast surface/bone surface (Oc.S/BS, %), and osteoclast number/bone perimeter (N.Oc/B.Pm, #/mm) were quantified using Image J software as described elsewhere (Schneider et al., Nat. Methods, 9:671-675 (2012) and Egan et al., Histopathology, 61:1168-1173 (2012)).

The test system of series [1] is sham or OVX female C57BL/6 mice. Description: microCT of femur in estrogen-deficient ovariectomy (OVX) model, GSK126 for 6 weeks. The class given is in vivo, mouse. The conditions noted are these: for SMI / Tb.N / Tb.Sp / Tb.Th / BV/TV: distal femur metaphysis; for SMI / Tb.N / Tb.Sp / Tb.Th / Ct. Ar / Ct. BV / Ct. Mat.M.Dn / Ct. Ps.Ar / Ct. Th / Ec. Ar / BV/TV: 50 mg/kg, 6 weeks; for SMI / Tb.N / Tb.Sp / Tb.Th / Ct. Ar / Ct. BV / Ct. Mat.M.Dn / Ct. Ps.Ar / Ct. Th / Ec. Ar / Ct. TV / BV/TV: mean; for Ct. Ar / Ct. BV / Ct. Mat.M.Dn / Ct. Ps.Ar / Ct. Th / Ec. Ar / Ct. TV: femoral midshaft; for Ct. TV: GSK126 50 mg/kg daily IP 6 weeks; for BV/TV: trabecular bone. The procedure:
(§3) The effects of GSK126 administration on the skeleton was evaluated in an estrogen-deficient ovariectomy (OVX) model. At about 12 weeks of age, female C57BL/6 mice underwent either sham or OVX surgeries. The following day, animals received daily IP injections of GSK126 or vehicle (DMSO) at 50 mg/kg body weight for 6 weeks as described herein. To label mineralizing bone surfaces and study bone formation rates, mice received subcutaneous injections of tetracycline (25 mg/kg) 14 days prior sacrifice and calcein (10 mg/kg) at 5 days and 24 hours before euthanasia.
The quantitative analysis of the femoral metaphysis was performed using a vivaCT 40 scanner (SCANCO Medical AG) with the following parameters: E=55 kVp, 1=145 μA, integration time=300 ms. A 10.5 μm voxel size using a threshold of 220 was applied to all scans at high resolution. Using two-dimensional data from scanned slices, 3D analysis was generated and used to calculate morphometric parameters defining trabecular bone mass and micro-architecture, including Bone Volume/Tissue volume (BV/TV), trabecular number (Tb.N.), trabecular thickness (Tb.Th.), trabecular spacing (Tb.Sp.), and the structure model index (SMI), an indicator of plate-like versus rod-like trabecular architecture.

Series [2] in a line: Body and spleen weight in GSK126 in vivo studies. Also noted: species or system mouse. The procedure:
as §1, §2, §3

The subject of series [3] is sham operated or ovariectomized (OVX) C57B16/J female mice. Description: In vivo analysis of SFN effects on bone, μCT. Conditions: sham-operated mice. Details: species or system mouse. As for the experimental part:
Analysis of SFN on mice was performed using a protocol similar to that described elsewhere (Kong et al., Arthritis Rheum., 62:159-170 (2010)). In the experimental setting herein, eight week old sham operated or ovariectomized (OVX) C57B16/J female mice were purchased from Charles River laboratories. Mice were injected with 7.5 mM DL-SFN (200 μL of SFN at a concentration of 63.8 mg/mL/kg dissolved in ethanol and further diluted in PBS) intraperitoneally every other day for five weeks. Control mice received vehicle alone.
Images from tibias fixed in 4% formaldehyde were acquired in a SkyScan 1174 with a resolution of 6 μm (X-ray voltage 50 kV). Image reconstruction was performed by applying a modified Feldkamp algorithm using the Skyscan Nrecon software. 3D and 2D morphometric parameters were calculated for the trabecular bone (350 consecutive slides, 6 μm thick) starting from 300 μm from the growth plate. Threshold values were applied for segmenting trabecular bone corresponding to bone mineral density values of 0.6/cm^3 calcium hydroxyapatite. 3D parameters were based on analysis of a Marching Cubes type model with a rendered surface. Calculation all of 2D areas and perimeters was based on the Pratt algorithm (Pratt et al., IEEE Trans. Biomed. Eng., 38, 306-309 (1991). Bone structural variables and nomenclature were used according to Bouxsein et al. (J. Bone Miner. Res., 25:1468-1486 (2010)).

Setting [4] is: distal femoral metaphysis, 15 mg/kg.
The mark [5] stands for this setting: distal femoral metaphysis, 50 mg/kg.

With `CC[C@H](C)n1cc(C)c2c(C(=O)NCc3c(C)cc(C)[nH]c3=O)cc(-c3ccc(N4CCNCC4)nc3)cc21` [GSK126, N-[(1,2-dihydro-4,6-dimethyl-2-oxo-3-pyridinyl)methyl]-3-methyl-1-[(1S)-1-methylpropyl]-6-[6-(1-piperazinyl)-3-pyridinyl]-1H-indole-4-carboxamide], in the series with female C57BL/6 mice (setting [4]), the N.Ob/B.pm is listed as 0.028 #/mm, the N.Ob/T.Ar was determined as 0.109, the N.Oc/B.Pm is 0.015 #/mm and the N.Oc/T.Ar was determined as 0.042. In the series with female C57BL/6 mice (setting [4]), this compound yielded an Ob.S/BS of 0.354%. In the series with female C57BL/6 mice (setting [5]), the N.Ob/B.pm is 0.040 #/mm, the N.Ob/T.Ar amounted to 0.081, the N.Oc/B.Pm is 0.018 #/mm and the N.Oc/T.Ar is given as 0.050. In addition, the Ob.S/BS with female C57BL/6 mice (setting [5]) worked out at 0.551%. Also, the “interlabel thickness (Ir.L.Th), mineral apposition rate (MAR) and bone formation rate (BFR)” value with female C57BL/6 mice (dynamic histomorphometry, GSK126 50 mg/kg vs vehicle) was “enhanced”. In addition, in the series with female C57BL/6 mice (static histomorphometry, distal femoral metaphysis, 15 mg/kg), the Oc.S/BS amounted to 0.314%. Further, the Oc.S/BS with female C57BL/6 mice (static histomorphometry, distal femoral metaphysis, 50 mg/kg) was determined as 0.240%. Further, in the series on female C57BL/6 mice (static histomorphometry, distal femoral metaphysis, in words (FIG. 19C)), the “osteoblast surface area per bone surface area (Ob.S/BS)” value was “increase”. Besides, the “number of osteoblasts per bone perimeter (N. Ob./B.Pm)” value in the series with female C57BL/6 mice (static histomorphometry, distal femoral metaphysis, in words (FIG. 19D)) is reported as “increase”. In series [1] (OVX), this compound gave an SMI of 3.758, a Tb.N of 2.102 mm^−1, a Tb.Sp of 0.499 mm and a Tb.Th of 0.047 mm. Moreover, in series [1] (OVX), the “Ct. Ar” value amounted to 0.771 mm^2, the “Ct. BV” value is reported as 0.405 mm^3, the “Ct. Mat.M.Dn” value is 1067 mgHA/cm^3 and the “Ct. Ps.Ar” value came out at 0.809 mm^2. Also, in series [1] (OVX), the “Ct. Th” value was 0.19 mm, the “Ec. Ar” value is 0.038 mm^2, the “Ct. TV” value was found to be 0.425 mm^3 and the BV/TV stood at 1.404%. In series [1] (SHAM), the SMI amounted to 4.168, the Tb.N was found to be 2.496 mm^−1, the Tb.Sp came out at 0.402 mm and the Tb.Th is reported as 0.042 mm. For the same compound, in series [1] (SHAM), the “Ct. Ar” value is 0.782 mm^2, the “Ct. BV” value worked out at 0.411 mm^3, the “Ct. Mat.M.Dn” value amounted to 1065 mgHA/cm^3 and the “Ct. Ps.Ar” value was determined as 0.82 mm^2. Further, in series [1] (SHAM), the “Ct. Th” value is on record as 0.197 mm, the “Ec. Ar” value is 0.037 mm^2, the “Ct. TV” value was determined as 0.430 mm^3 and the BV/TV was 1.642%. The “OVX-induced cortical bone loss” value in series [1] (ovariectomized female mice, daily regimen, in words) was “mitigated”. The “body or spleen weight at sacrifice” value in series [2] (C57bl/6 mice, 15 mg/kg or 50 mg/kg GSK126 for 5 weeks vs vehicle) is “No changes”. Besides, the “Body and spleen weights” value in series [2] (mouse ovariectomy model, six weeks of daily injections, between surgical and treatment groups) was “similar”.
Regarding `C[S+]([O-])CCCCN=C=S` (racemic) [DL-SFN], the “femoral metaphyseal cancellous bone volume per tissue volume (BV/TV)” value in series [3] (DL-SFN IP every other day for five weeks) is recorded as “significantly higher”. For the same compound, in series [3] (DL-SFN for five weeks), the “trabecular number (Tb.N)” value is listed as “significantly higher”, the “trabecular separation (Tb.Sp.)” value was “decreasing” and the “trabecular thickness (Tb.Th.)” value is on record as “not affecting”.

The values above are taken from patent US20180133211A1, “METHODS AND MATERIALS FOR PROMOTING BONE FORMATION” (Mayo Foundation for Medical Education and Research, priority 2015, published 2018).
